The text below walks through data of PubChem BioAssay (NCI).

Common to all, as to test: growth of human tumour cells (NCI), 48 h
In assay [1] the test system is SK-MEL-2 melanoma.
The subject of assay [2] is 786-0 renal.
Assay [3] relates to HL-60(TB) leukemia.
Assay [4] relates to UO-31 renal.
Assay [5] concerns SK-MEL-5 melanoma.
Assay [6] has as its system SF-268 CNS.
Assay [7] has as its system IGROV1 ovarian.
For assay [8], the system named is HCT-15 colon.
In assay [9] the test system is CAKI-1 renal.
For assay [10], the system named is HOP-92 NSCLC.

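Each compound was tested at five concentrations against cells in 96-well plates for 48 hours. GI50 marks 50% less growth. TGI: concentration producing complete growth inhibition.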 Bounds are passed on as bounds.

For `Cc1cn2c(/C=C3\C(=O)Nc4ccc(O)cc43)c(-c3ccc(Cl)cc3)nc2s1`, the GI50 was 21.9 µM in [1]; 16.6 µM in [2]; 14.4 µM in assay [3]; 5.37 µM in assay [4]; 10.1 µM in assay [5]; 15.2 µM in [6]. Further, the values for the GI50 in assay [7], in assay [8] and in [9] were 5.56 µM, 21.4 µM and 33.4 µM, respectively. The TGI in assay [1] was 70.5 µM; in assay [2], 32.7 µM; in [3], 40.7 µM; in assay [4], 59.9 µM; in assay [5], 25.2 µM; in assay [6], 54.5 µM. Also, the TGI in [7] was 23.9 µM; in [8] it was above 100 µM; in assay [9], 72.8 µM.

In the case of `N#Cc1c(-c2ccc(F)cc2)c(-c2ccc(F)cc2)nn(CCO)c1=O`, the TGI in assay [2] was above 100 µM; in assay [3] it was 0.292 µM; in [4], above 100 µM; in assay [5], above 4.64 µM; in [6] it was above 100 µM; in [7], above 87.4 µM. The results for the TGI in assay [8], in assay [10] and in assay [9] were 8.6 µM, above 100 µM and above 100 µM, respectively.

On to `C1CSCCSCCS1`, for which the TGI in assay [2], in [3], in [4], in assay [5], in assay [6] and in [7] was above 100 µM in each case. Moreover, the TGI in [8] and in assay [10] was above 100 µM throughout.

Turning to `O=C1[C@@H]2C3c4ccccc4C([C@@H]2C(=O)N1c1ccccc1)S3(=O)=O`, the TGI in assay [1], in assay [2], in assay [3], in [4], in assay [5] and in assay [6] was above 100 µM throughout. The TGI in assay [7], in assay [8] and in assay [10] was above 100 µM in each case.

As to `O=C1c2ccccc2C2(O)c3cc4ccccc4cc3OC12O` (configuration not stated), the TGI is above 100 µM in [1]; above 100 µM in assay [2]; 86.9 µM in [5]; above 100 µM in assay [6]; above 100 µM in assay [7]; above 100 µM in assay [8]. Moreover, the TGI in assay [10] was 80.4 µM; in [9], above 100 µM.

With `O=C(N/N=C1/C(=O)N(c2ccc(Cl)cc2Cl)C(=O)C(=O)C1c1nc2ccccc2o1)c1ccccc1O` (configuration not stated), the TGI in [1] was above 100 µM; in assay [2], above 100 µM; in assay [5] it was 40.2 µM; in assay [6] it was above 100 µM; in assay [7], above 100 µM; in assay [8], above 100 µM. Besides, the TGI in assay [10] is 93.5 µM; in [9], above 100 µM.

For the molecule `CC1=CC(=O)[C@@H](O)[C@]2(C)[C@H]3[C@@]4(O)OC[C@]35[C@H]([C@@H](C)[C@H]4O)[C@@H](O)C(=O)O[C@@H]5C[C@@H]12`, the TGI was 1.16 µM in assay [1]; 2.13 µM in assay [2]; 6.71 µM in [4]; 0.369 µM in [5]; 0.778 µM in assay [6]; 3.42 µM in [7]. In addition, the TGI in assay [8] came to 2.48 µM; in assay [10], 2.51 µM; in assay [9], 5.3 µM.

As for `Nc1nc(N)c(N=Nc2ccc([As](=O)(O)O)cc2)c(=O)[nH]1`, the TGI in [1], in assay [2], in assay [3], in [4], in assay [5] and in [6] was above 100 µM throughout. Besides, the TGI in assay [7], in assay [8] and in assay [9] was above 100 µM each time.

As for `O=C(O)[C@H](NS(=O)(=O)c1ccc2ccccc2c1)c1ccccc1`, the TGI in assay [1], in assay [2], in [3], in [4], in assay [6] and in [7] was above 100 µM in each case. In addition, the TGI in [8], in assay [10] and in [9] was above 100 µM throughout.

Take `O=C(O)CSc1n[nH]c(-c2ccccc2)n1`: the TGI in assay [1], in assay [2], in assay [3], in assay [4], in assay [5] and in assay [6] was above 100 µM in each case. For the same molecule, the TGI in [7], in [8] and in [9] was above 100 µM in each case.

For the molecule `O=c1n(-c2ccccc2)c(=O)n2n1C1C=CC2C2C(C1)C2(Cl)Cl` (configuration not stated), the TGI in assay [1], in [2], in assay [3], in assay [4], in assay [5] and in assay [6] was above 100 µM in each case. The TGI in assay [7], in assay [8] and in assay [9] was above 100 µM each time.

Consider `CC(=O)O[C@H]1CCC2[C@@H]3CCC4=C(O)c5nocc5C[C@]4(C)C3CC[C@@]21C` (some centres not stated), for which the TGI in assay [1], in [2], in [4], in [5], in assay [6] and in assay [7] was above 100 µM throughout. Also, the TGI in [8], in assay [10] and in assay [9] was above 100 µM each time.

In the case of `Cc1ccc(S(=O)(=O)N/N=C/c2oc(-c3ccncc3)c(-c3ccncc3)c2[N+](=O)[O-])cc1`, the TGI in assay [1], in assay [2], in assay [3], in assay [4], in assay [5] and in [6] was above 100 µM throughout. The TGI in assay [7], in assay [8] and in assay [9] was above 100 µM throughout.

As to `CCOC(=O)NC(=O)c1cn(CCOC(=O)NCCCCCCNC(=O)OCCn2cc(C(=O)NC(=O)OCC)c(=O)[nH]c2=O)c(=O)[nH]c1=O`, the TGI in assay [1], in assay [2], in assay [3], in assay [4], in [5] and in [6] was above 100 µM in each case. For the same molecule, the TGI in assay [7], in assay [8] and in assay [9] was above 100 µM each time.
